This is an account of results in US7390782B2, “Methods and products related to metabolic interactions in disease” (University of Vermont and State Agricultural College, priority 1998, dated 2008).

In assay [1] the test system is L1210. Briefly: Fas expression by flow cytometry (FITC anti-Fas over isotype). In kind it is cell-based. Conditions: for Fas expression: in the presence of staurosporine or ADRIAMYCIN
The procedure: (§1) 3. Fas Expression Increases as a Function of Glucose: We investigated the effect of increasing concentrations of glucoseon cell surface Fas expression. L1210 and L1210/DDP cells were cultured in glucose free RPMI media or in media supplemented with insulin and glucose for 16 hours. Intra- and extracellular Fas expression was determined by labeling the cells with FITC-conjugated anti-Fas antibodies (Pharmingen), or FITC-conjugated isotype control, then subtracting the fluorescence intensity of the isotype staining from Fas staining for each treatment group.
(§2) L1210, upper panels, and L1210/DDP cells, lower panels, were cultured in glucose free RPMI media, filled circles, or in media supplemented with insulin and glucose, squares, for 16 hours. Intra- and extracellular Fas expression was determined by labeling the cells with FITC-conjugated anti-Fas antibodies, or FITC-conjugated isotype control, then subtracting the fluorescence intensity of the isotype staining from Fas staining for each treatment group (FIG. 2). Results are presented as geometric mean fluorescence over background.
(§3) 4. […] We treated L1210 or L1210 DDP cells with the staurosporine, which inhibits protein kinase C and increases mitochondrial membrane potential, or an anti-cancer agent to which both cells are sensitive, ADRIAMYCIN™. Fas expression was increased or induced on both L1210 and L1210 DDP, respectively, in the presence of staurosporine or ADRIAMYCIN™ (FIG. 3). The L1210 DDP changed morphologically and began to divide rapidly, changes which appeared to correspond with a reversion back to the phenotype of the L1210 cells.
(§4) FIG. 23 is a graph depicting Sodium Acetate as a mitochondrial modifying agent. L1210 or L1210DDP cells were cultured in the presence of graded concentrations of sodium acetate in the medium. Cells were stained with Jo2.2, a fluorescein conjugated anti-Fas antibody, or an isotype control. Cell surface staining was measured flow cytometrically. The Percentage of mean fluorescence intensity over the isotype control was plotted.
(A flow cytometer gives signals particle by particle.)

Assay [2] deals with L1210/DDP. Described as above. Format: cell-based. The note with it: for Fas expression: L1210 DDP, in the presence of staurosporine or ADRIAMYCIN
Here is the method:
as §1, §2, §3, §4

Assay [3] deals with resting B-cells from (NZB×NZW)F1 and (NZB×SWR)F1 mice. Briefly: Apoptosis (DNA fragments) in resting B-cells from autoimmune strains. Format: cell-based. The procedure: We stimulated both resting and activated B-cells from (NZB×NZW)F1 and (NZB×SWR)F1 mice with antibodies to class II molecules. Young animals, prior to the development of lupus-like autoantibody and renal disease, were used in these studies. […] Agarose gel electrophoresis of DNA fragments from high density resting B-cells (1.079<r<1.085) was carried out as described in FIG. 2. Normalized areas produced by scanning densitometry on the gels shown above for normal; (NZB×SWR)F1; or (NZB×NZW)F1, animals. […] For normal animals, the mean and standard error of four experiments are shown. For the (NZB×NZW)F1 animals, representative data from one of two experiments is shown and for (NZB×SWR)F1 animals, a single experiment is shown. Because experiments were performed on different days it is impossible to compare background levels of apoptosis between strains; however, it should be noted that there is significant variability in background levels of apoptosis, with those for the (NZB×NZW)F1 animals apparently tending to be higher than for the other strains.

The test system is the same in assay [4]. Briefly: cAMP in resting B-cells from autoimmune strains. In kind it is cell-based. Here is the method: Following the protocols as described in Newell, M K, et al. (Proc Natl Acad Sci, USA, 1993, 90:10459-10463) for resting B lymphocytes from normal mice, we isolated resting B-cells from spleens of (NZB×NZW)F1 and (NZB×SWR)F1 mice by Percoll gradient separation and treated the cells with antibodies to class II molecules, FIG. 12. Experiments utilized mice younger than 3 months of age. […] Resting (1.079<r<1.085) B-cells from normal; […], animals were treated for 10 min at 37° C. with stimuli indicated. Levels of cAMP were determined as described in FIG. 1. Means (and standard errors) from three experiments are shown for normal animals. The means from two experiments are shown for each of the F1 hybrid animals.

For assay [5], the system named is L1210. Briefly: Methotrexate-induced death, flow cytometry and DNA fragment analysis. Conditions: 10^-8 M methotrexate, 24 hours. Format: cell-based. The procedure:
(§5) Additionally, L1210 and L1210/DDP cells were treated with 10−8 M methotrexate for 24 hours. […] The forward scatter low populations took up ethidium bromide differentially. The L1210 cells took up a moderate amount. […] This latter phenotype—loss in forward scatter and membrane permeability with no “DNA laddering”—is the hall mark of oncosis.

The test system of assay [6] is L1210/DDP. Described as above. Format: cell-based. The note with it: 10^-8 M methotrexate, 24 hours. The procedure:
as §5

The subject of assay [7] is splenic lymphocytes from C57BL/6, C57BL6.lpr and C57BL.gld. Briefly: Viability of splenic lymphocytes cultured with methotrexate. Format: cell-based, mice. Conditions: Fas deficient lymphocytes; 5×10^-8 M methotrexate, 18 or 32 hours. The procedure:
8. Fas Deficient Lymphocytes are also drug resistant to methotrexate: We isolated splenic lymphocytes from aged-matched wild type C57BL/6 mice and C57BL6.lpr and C57BL.gld. Splenocytes from C57BL/6 lpr or gld animals were isolated, red cells depleted, and single cell suspensions prepared. Cells were cultured in the absence or presence of 5×10^−8 M methotrexate for 18 or 32 hours. Cells were harvested and viability was determined by flow cytometric analysis and confirmed with trypan blue exclusion.

The subject of assay [8] is B16 melanoma cells. Conditions: increasing concentrations. Here is the method:
FIG. 18 depicts the rates of glucose utilization and oxidation in B16 melanoma cells. Again cells were cultured in the presence of varying concentration of sodium acetate.

The subject of assay [9] is B16 melanoma cells. Conditions: increasing concentrations. The procedure: B16 cells were cultured in the in the presence of different concentrations of sodium acetate and Fas expression was measured.
The source holds these as a separate data set.

Assay [10] concerns L1210. The note with it: FasL bearing cells over mock-transfectants. An excerpt:
(§6) Cells cultured with acetate were loaded with 51 Cr and plated onto FasL bearing or mock transfected fibroblast to determine sensitivity to Fas-induced cell death. Results are reported as percent chromium release from cells in the presence of FasL bearing cells over mock-transfectants.

For the next assay, the system named is L1210DDP. The note with it: FasL bearing cells over mock-transfectants.
Description: as §6

The next assay relates to PC12 cells. Briefly: Cytofluorometric analysis of Fas, B7.1, B7.2 cell surface expression. Format: cell-based, Rat. The note with it: 50 ng/ml. Here is the method: (§7) Cell Culture: Rat pheochromocytoma cell lines, including PC12, Trk and v-Crk cells were a kind gift from Dr. Raymond Birge. They were maintained in complete RPMI 1640 (GIBCO) supplemented with 7% heat inactivated fetal calf serum and 3% heat inactivated horse serum at 37° C. in a humidified incubator with 5% CO2. The PC12 transfectants were generated as described previously (Glassman et al., 1997, Hempstead et al., 1994). Cells were plated in 6 well culture plates at a concentration ranging from 2-8×10^6 cells/well, according to the cell type's growth kinetics, and 5 ml complete medium. NGF-7S from mouse submaxillary glands (Sigma Chemical Co.) or EGF, kindly provided by Dr. Raymond Birge, was added at a concentration of 50 ng/ml culture medium and the cells were incubated for 24 or 48 hours.
(§8) Cytofluorometric Analysis: Cells were harvested after a 10 minute incubation period on ice in order to diminish their adherence to the plastic culture flask. They were spun at 1210 rpm, for 7 minutes, resuspended in medium and counted after trypan blue staining. Equal numbers of cells were placed in 12×75 mm flow tubes (range: 0.1-1×10^6 cells/tube), washed in PBS and 5% FBS and stained at 4° C. The following stains were used: a) fluorescein isothiocyanate (FITC) hamster IgG isotype standard, b) FITC anti-mouse Fas, c) FITC anti-mouse CD80 (B7.1), d) phycoerythrin (PE) mouse IgG2b K isotype standard and e) PE anti-mouse CD86 (B7.2). All antibodies were obtained from Pharmingen.
(§9) After incubation on ice for 20 minutes, cells were washed, resuspended in PBS and 5% FCS and analyzed by flow cytometry (Becton Dickinson). Histogram plots were derived from dot plots gated on the live cell population according to the forward versus side scatter ratio (Cell Quest Program). The absolute Fas, B7.1 and B7.2 values presented on the graphs were obtained by subtracting the […]. Values were considered subjectively positive (+) if the difference was statistically significant (p<0.001) according to the applied Kilmogorov-Smirnov statistical analysis.

The subject of another assay is v-Crk cells. The assay is described as above. In kind it is cell-based, Rat. The procedure: as §7, §8, §9
A further assay has as its system TrkA cells. Described as above. Format: cell-based, Rat. The note with it: Trk cells, 50 ng/ml. Here is the method: as §7, §8, §9

“Also recorded” adds a separate entry of the source.

Consider `COc1cccc2c1C(=O)c1c(O)c3c(c(O)c1C2=O)C[C@@](O)(C(=O)CO)C[C@@H]3O[C@H]1C[C@H](N)[C@H](O)[C@H](C)O1` [ADRIAMYCIN™], for which the Fas expression result in the assay on L1210 [1] is on record as “increased”; with L1210/DDP [2], “induced”.

On to `CC(C)NCC(O)c1ccc(O)c(O)c1` (stereo not shown) [isoproterenol], for which the apoptosis result is “minimal evidence of apoptosis” in assay [3] ((NZB×NZW)F1 B-cells) and “intermediate level” in assay [3] (B-cells from (NZB×SWR)F1 mice). Also, the “intracellular cAMP response” value in assay [4] is “normal”.

In the case of `CN(Cc1cnc2nc(N)nc(N)c2n1)c1ccc(C(=O)N[C@@H](CCC(=O)O)C(=O)O)cc1` [methotrexate], the results for the “DNA fragments (laddering)” value in the assay with L1210 [5] and in the assay with L1210/DDP [6] were “produced a ladder of nucleosome sized fragments indicative of apoptosis” and “did not”, respectively. Moreover, the “susceptibility to methotrexate-induced apoptosis” value in assay [7] was “decreased susceptibility”.

Regarding `CC(=O)[O-].[Na+]` [sodium acetate], the “cell surface Fas expression” value is reported as “increases cell surface Fas expression” with L1210 [1] (graded concentrations of sodium acetate in the medium) and “increases cell surface Fas expression” with L1210/DDP [2] (L1210DDP, graded concentrations of sodium acetate in the medium). Further, in the assay with B16 melanoma cells [8], the glucose oxidation result is “decreased”. For the same compound, the glucose utilization result in the assay with B16 melanoma cells [8] was “decreased”. Moreover, the “levels of cell surface Fas” value in the assay on B16 melanoma cells [9] (non-permeabilized B16 cells) was “increased”. Also, in the assay on B16 melanoma cells [9] (permeabilized B16 cells), the “levels of intracellular Fas” value is “declined”. For the same compound, the “susceptibility to Fas-dependent cell death (percent chromium release)” value in the assay with L1210 [10] and with L1210DDP was “results in susceptibility to Fas-dependent cell death” throughout.

Take `CN[C@@H]1C[C@H]2O[C@@](C)([C@@H]1OC)n1c3ccccc3c3c4c(c5c6ccccc6n2c5c31)C(=O)NC4` [staurosporine]: the Fas expression result is listed as “increased” with L1210 [1] and “induced” in the assay on L1210/DDP [2]. For the same compound, the “Fas expression and susceptibility to drug-induced apoptosis” value with L1210/DDP [2] (L1210 DDP cells treated with staurosporin) was “restores Fas expression and susceptibility to drug-induced apoptosis”.

Turning to “EGF: EGF, kindly provided by Dr. Raymond Birge”, the “B7.1 cell surface expression” value in the assay with PC12 cells (stimulation 24 hours) is recorded as “significantly lowers”; in the assay on PC12 cells (stimulation 48 hours) it was “reestablishes the basal values”; in the assay with v-Crk cells (50 ng/ml, 24 and 48 hours of culture), “significantly increases B7.1 expression”; in the assay with TrkA cells (stimulation 24 hours) it was “lowered”; with TrkA cells (stimulation 48 hours), “reestablished”. For the same compound, the “Fas cell surface expression” value in the assay on PC12 cells (stimulation 24 hours) was “downregulates Fas expression”; in the assay on PC12 cells (stimulation 48 hours), “totally abrogates Fas expression”; in the assay on v-Crk cells (50 ng/ml, stimulation 24 hours) it was “significantly up-regulates Fas expression; also recorded: increases three-fold”; in the assay with v-Crk cells (50 ng/ml, stimulation 48 hours), “down-regulated and abrogated”; in the assay with TrkA cells (stimulation 24 hours), “downregulates Fas expression”; with TrkA cells (stimulation 48 hours), “totally abrogates Fas expression”. Moreover, the “B7.2 cell surface expression” value in the assay on PC12 cells (stimulation 48 hours) is given as “up-regulates B7.2 expression”; in the assay on v-Crk cells (50 ng/ml, stimulation 48 hours), “significant induction”; with v-Crk cells (after withdrawal), “again undetectable”; with TrkA cells (stimulation 48 hours), “most significant”.
